Source: patent US12240862B2, “Inhibitors of peptidylarginine deiminases” (Gilead Sciences, Inc., priority 2020, dated 2025)

molecular target: T1, human PAD4 (Homo sapiens, UniProt Q9UM07); assay: In vitro PAD4 BAEE biochemical assay; settings: human PAD4, BAEE substrate; 5 nM PAD4, 2 mM calcium chloride, 3 mM BAEE; geometric mean of multiple experiments
T1 construct: human PAD4 (NM_012387), A2P663, was PCR amplified; His-SUMO (N, cleaved yes); made in house; host or cells: E. coli BL21(DE3)
Summary of the method: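 Tag-free recombinant hPAD4 (5 nM), 2 mM CaCl2, 3 mM BAEE, 50 mM MOPS pH 7.6, 2 mM DTT; 30 min compound preincubation, 2 h reaction, all 25 °C. EDTA quench; ammonia read via o-phthalaldehyde amine coupling, 1 h.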

T1 sequence (Q9UM07 2-663): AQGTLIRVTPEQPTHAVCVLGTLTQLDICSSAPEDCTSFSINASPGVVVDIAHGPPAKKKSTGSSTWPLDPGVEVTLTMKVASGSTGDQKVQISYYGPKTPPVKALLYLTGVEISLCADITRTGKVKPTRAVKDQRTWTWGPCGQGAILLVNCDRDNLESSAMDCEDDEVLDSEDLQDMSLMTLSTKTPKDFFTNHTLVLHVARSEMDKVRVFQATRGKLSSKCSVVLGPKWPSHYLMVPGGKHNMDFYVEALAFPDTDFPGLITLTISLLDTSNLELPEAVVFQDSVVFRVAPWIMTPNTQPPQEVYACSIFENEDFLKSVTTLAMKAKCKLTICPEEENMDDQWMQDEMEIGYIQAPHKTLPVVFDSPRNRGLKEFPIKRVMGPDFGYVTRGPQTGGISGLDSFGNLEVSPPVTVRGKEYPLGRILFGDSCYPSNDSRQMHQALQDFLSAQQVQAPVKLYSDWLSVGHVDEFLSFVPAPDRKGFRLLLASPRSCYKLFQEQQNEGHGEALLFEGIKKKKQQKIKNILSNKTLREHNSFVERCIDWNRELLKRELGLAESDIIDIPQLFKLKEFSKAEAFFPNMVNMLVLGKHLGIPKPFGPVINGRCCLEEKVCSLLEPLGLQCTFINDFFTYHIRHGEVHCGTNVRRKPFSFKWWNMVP

| Compound | IC50 |
| --- | --- |
| COc1cc(C(=O)N2[C@H]3CC[C@@H]2[C@H](N)C3)cc2nc(-c3cc4ccc([C@@H](C)NC(=O)N5CC(OC(F)F)C5)nc4n3CC3CC3)c(C)n12 [Example 205, ~{N}-[(1~{R})-1-[2-[7-[(1~{R},2~{R},4~{S})-2-amino-7-azabicyclo[2.2.1]heptane-7-carbonyl]-5-methoxy-3-methylimidazo [1,2-a]pyridin-2-yl]-1-(cyclopropylmethyl)pyrrolo [2,3-b]pyridin-6-yl]ethyl]-3-(difluoromethoxy)azetidine-1-carboxamide] | 0.0348 µM |
| COc1cc(C(=O)N2[C@H]3CC[C@@H]2[C@H](N)C3)cc2nc(-c3cc4ccc([C@@H](C)NC(=O)CCN5C(=O)NC(C)(C)C5=O)nc4n3CC3CC3)c(C)n12 [Example 148, ~{N}-[(1~{R})-1-[2-[7-[(1~{R},2~{R},4~{S})-2-amino-7-azabicyclo[2.2.1]heptane-7-carbonyl]-5-methoxy-3-methylimidazo [1,2-a]pyridin-2-yl]-1-(cyclopropylmethyl)pyrrolo [2,3-b]pyridin-6-yl]ethyl]-3-(4,4-dimethyl-2,5-dioxoimidazolidin-1-yl)propenamide] | 0.0562 µM |
| COc1cc(C(=O)N2[C@H]3CC[C@@H]2[C@H](N)C3)cc2nc(-c3cc4ccc([C@@H]5CCNC(=O)C5)nc4n3CC3CC3)c(C)n12 [Example 555, (4~{R})-4-[2-[7-[(1~{R},2~{R},4~{S})-2-amino-7-azabicyclo[2.2.1]heptane-7-carbonyl]-5-methoxy-3-methylimidazo [1,2-a]pyridin-2-yl]-1-(cyclopropylmethyl)pyrrolo [2,3-b]pyridin-6-yl]piperidin-2-one] | 0.0693 µM |
| COc1cc(C(=O)N2[C@H]3CC[C@@H]2[C@H](N)C3)cc2nc(-c3cc4ccc(C(C)(C)N)nc4n3CC3CC3)c(C)n12 [Example 570, [(1~{R},2~{R},4~{S})-2-amino-7-azabicyclo [2.2.1]heptan-7-yl]-[2-[6-(2-aminopropan-2-yl)-1-(cyclopropylmethyl)pyrrolo [2,3-b]pyridin-2-yl]-5-methoxy-3-methylimidazo[1,2-a]pyridin-7-yl]methanone] | 0.227 µM |
| COc1cc(C(=O)N2[C@H]3CC[C@@H]2[C@H](N)C3)cc2nc(-c3cc4ccc([C@@H](C)NC(=O)C5CCC(F)(F)CC5)nc4n3CC3CC3)c(C)n12 [Example 66, ~{N}-[(1~{R})-1-[2-[7-[(1~{R},2~{R},4~{S})-2-amino-7-azabicyclo [2.2.1]heptane-7-carbonyl]-5-methoxy-3-methylimidazo [1,2-a]pyridin-2-yl]-1-(cyclopropylmethyl)pyrrolo[2,3-b]pyridin-6-yl]ethyl]-4,4-difluorocyclohexane-1-carboxamide] | 0.0685 µM |
| COc1cc(C(=O)N2[C@H]3CC[C@@H]2[C@H](N)C3)cc2nc(-c3cc4ccc([C@@H](C)NC(=O)C5(C(F)(F)F)CCOCC5)nc4n3CC3CC3)c(C)n12 [Example 67, ~{N}-[(1~{R})-1-[2-[7-[(1~{R},2~{R},4~{S})-2-amino-7-azabicyclo [2.2.1]heptane-7-carbonyl]-5-methoxy-3-methylimidazo [1,2-a]pyridin-2-yl]-1-(cyclopropylmethyl)pyrrolo[2,3-b]pyridin-6-yl]ethyl]-4-(trifluoromethyl)oxane-4-carboxamide] | 0.124 µM |
| CS(=O)(=O)N(c1ccc2cc(-c3nc4cc(C(=O)N5[C@@H]6CC[C@@H](N)[C@H]5CC6)ccn4c3CC3CC3)n(CC3CC3)c2n1)C(F)F [Example 436, ~{N}-[2-[7-[(1~{R},2~{R}, 5~{R})-2-amino-8-azabicyclo[3.2.1]octane-8-carbonyl]-3-(cyclopropylmethyl)imidazo [1,2-a]pyridin-2-yl]-1-(cyclopropylmethyl)pyrrolo [2,3-b]pyridin-6-yl]-~{N}-(difluoromethyl) methanesulfonamide] | 0.202 µM |
| COc1cc(C(=O)N2[C@H]3CC[C@@H]2[C@H](N)C3)cc2nc(-c3cc4ccc([C@@H](C)NC(=O)c5cccn(C)c5=O)nc4n3CC3CC3)c(C)n12 [Example 30, ~{N}-[(1~{R})-1-[2-[7-[(1~{R}, 2~{R},4~{S})-2-amino-7-azabicyclo [2.2.1]heptane-7-carbonyl]-5-methoxy-3-methylimidazo [1,2-a]pyridin-2-yl]-1-(cyclopropylmethyl)pyrrolo[2,3-b]pyridin-6-yl]ethyl]-1-methyl-2-oxopyridine-3-carboxamide] | 0.0824 µM |
| COc1cc(C(=O)N2[C@H]3CC[C@@H]2[C@H](N)C3)cc2nc(-c3cc4ccc(C5CCNC(=O)C5)nc4n3CC3CC3)c(C)n12 (stereo partly shown) [Example 562, 4-[2-[7-[(1~{R},2~{R}, 4~{S})-2-amino-7-azabicyclo[2.2.1]heptane-7-carbonyl]-5-methoxy-3-methylimidazo[1,2-a]pyridin-2-yl]-1-(cyclopropylmethyl)pyrrolo[2,3-b]pyridin-6-yl]piperidin-2-one] | 0.0831 µM |
| COc1cc(C(=O)N2[C@H]3CC[C@@H]2[C@H](N)C3)cc2nc(-c3cc4ccc([C@@H](C)NC(=O)N(C)C(C)c5cccnc5)nc4n3CC3CC3)c(C)n12 (stereo partly shown) [Example 221, 3-[(1~{R})-1-[2-[7-[(1~{R},2~{R},4~{S})-2-amino-7-azabicyclo[2.2.1]heptane-7-carbonyl]-5-methoxy-3-methylimidazo [1,2-a]pyridin-2-yl]-1-(cyclopropylmethyl)pyrrolo [2,3-b]pyridin-6-yl]ethyl]-1-methyl-1-(1-pyridin-3-ylethyl)urea] | 0.062 µM |
| COc1cc(C(=O)N[C@@H]2C[C@@H]3CC[C@H]2N3)cc2nc(-c3cc4ccc(N(C(F)F)S(C)(=O)=O)nc4n3CC3CC3)c(C)n12 [Example 312, N-[(1R,2R,4S)-7-azabicyclo[2.2.1]heptan-2-yl]-2-[1-(cyclopropylmethyl)-6-[difluoromethyl (methylsulfonyl)amino]pyrrolo[2,3-b]pyridin-2-yl]-5-methoxy-3-methyl-imidazo[1,2-a] pyridine-7-carboxamide] | 31.2 µM |
| [(1~{R},2~{R},4~{S})-2- amino-7-azabicyclo [2.2.1]heptan-7-yl]-[2-[6- ethyl-1-[(1~{R},2~{R})-2- phenylcyclopropyl]methyl] pyrrolo[2,3-b] pyridin-2-yl]-5-methoxy-3- methylimidazo[1,2-a] pyridin-7-yl]methanone [Example 492] | 2.09 µM |
| COc1cc(C(=O)N2[C@H]3CC[C@@H]2[C@H](N)C3)cc2nc(-c3cc4ccc([C@@H](C)NC(=O)N(C)c5ccccc5)nc4n3CC3CC3)c(C)n12 [Example 242, 3-[(1~{R})-1-[2-[7-[(1~{R},2~{R},4~{S})-2-amino-7-azabicyclo[2.2.1]heptane-7-carbonyl]-5-methoxy-3-methylimidazo [1,2-a]pyridin-2-yl]-1-(cyclopropylmethyl)pyrrolo [2,3-b]pyridin-6-yl]ethyl]-1-methyl-1-phenylurea] | 0.238 µM |
| COc1ccc(-c2ccc3cc(-c4nc5cc(C(=O)N6[C@H]7CC[C@@H]6[C@H](N)C7)cc(OC)n5c4C)n(CC4CC4)c3n2)c(C)n1 [Example 556, [(1~{R},2~{R},4~{S})-2-amino-7-azabicyclo [2.2.1]heptan-7-yl]-[2-[1-(cyclopropylmethyl)-6-(6-methoxy-2-methylpyridin-3-yl)pyrrolo[2,3-b]pyridin-2-yl]-5-methoxy-3-methylimidazo[1,2-a]pyridin-7-yl]methanone] | 0.296 µM |
| COc1cc(C(=O)N2[C@H]3CC[C@@H]2[C@H](N)C3)cc2nc(-c3cc4ccc(N5Cc6ccccc6CS5(=O)=O)nc4n3CC3CC3)c(C)n12 [Example 461, [(1~{R},2~{R},4~{S})-2-amino-7-azabicyclo [2.2.1]heptan-7-yl]-[2-[1-(cyclopropylmethyl)-6-(2,2-dioxo-1,4-dihydro-2$l^6,3-benzothiazin-3-yl)pyrrolo[2,3-b]pyridin-2-yl]-5-methoxy-3-methylimidazo[1,2-a]pyridin-7-yl]methanone] | 0.294 µM |
| COc1cc(C(=O)N2CCC[C@@H](N)C2)cc2nc(-c3cc4ccc(-c5ccnc6c5CC(=O)N6)nc4n3CC3CC3)c(C)n12 [Example 600, 4-[2-[7-[(3~{R})-3-aminopiperidine-1-carbonyl]-5-methoxy-3-methylimidazo[1,2-a]pyridin-2-yl]-1-(cyclopropylmethyl)pyrrolo[2,3-b]pyridin-6-yl]-1,3-dihydropyrrolo[2,3-b] pyridin-2-one] | 0.666 µM |
| CCc1ccc2cc(-c3nc4cc(C(=O)N5CC[C@@H](OC)[C@@H](N)C5)cc(OC)n4c3C)n(CC3CC3)c2n1 [Example 579, [(3~{S},4~{R})-3-amino-4-methoxypiperidin-1-yl]-[2-[1-(cyclopropylmethyl)-6-ethylpyrrolo[2,3-b]pyridin-2-yl]-5-methoxy-3-methylimidazo[1,2-a]pyridin-7-yl]methanone] | 0.412 µM |
| COc1cc(C(=O)N2[C@@H]3CC[C@H]2[C@@H](N)[C@@H](O)C3)cc2nc(-c3cc4ccc(N(C(F)F)S(C)(=O)=O)nc4n3CC3CC3)c(C)n12 [Example 414, ~{N}-[2-[7-[(1~{S}, 2~{R},3~{S},5~{R})-2-amino-3-hydroxy-8-azabicyclo[3.2.1]octane-8-carbonyl]-5-methoxy-3-methylimidazo [1,2-a]pyridin-2-yl]-1-(cyclopropylmethyl)pyrrolo [2,3-b]pyridin-6-yl]-~{N}-(difluoromethyl) methanesulfonamide] | 5.25 µM |
| CCc1ccc2cc(-c3nc4cc(C(=O)N5[C@H]6CC[C@@H]5[C@H](N)C6)cc(OC)n4c3C)n(CCC3CC3)c2n1 [Example 505, [(1~{R},2~{R},4~{S})-2-amino-7-azabicyclo [2.2.1]heptan-7-yl]-[2-[1-(2-cyclopropylethyl)-6-ethylpyrrolo[2,3-b]pyridin-2-yl]-5-methoxy-3-methylimidazo[1,2-a]pyridin-7-yl]methanone] | 0.17 µM |
